Laboratory results as given in PMC12858405, “Ideal efficacy photoswitching for chromocontrol of TRPC4/5 channel functions in live tissues” (Nature Chemical Biology, 2026).

Target: T1, mouse TRPC5 (Mus musculus, UniProt Q9QX29)
T1 construct: expressed in transfected cells; host or cells: HEK293 (ATCC CRL 1573), stably transfected, tetracycline-induced
T1 sequence (Q9QX29 1-975): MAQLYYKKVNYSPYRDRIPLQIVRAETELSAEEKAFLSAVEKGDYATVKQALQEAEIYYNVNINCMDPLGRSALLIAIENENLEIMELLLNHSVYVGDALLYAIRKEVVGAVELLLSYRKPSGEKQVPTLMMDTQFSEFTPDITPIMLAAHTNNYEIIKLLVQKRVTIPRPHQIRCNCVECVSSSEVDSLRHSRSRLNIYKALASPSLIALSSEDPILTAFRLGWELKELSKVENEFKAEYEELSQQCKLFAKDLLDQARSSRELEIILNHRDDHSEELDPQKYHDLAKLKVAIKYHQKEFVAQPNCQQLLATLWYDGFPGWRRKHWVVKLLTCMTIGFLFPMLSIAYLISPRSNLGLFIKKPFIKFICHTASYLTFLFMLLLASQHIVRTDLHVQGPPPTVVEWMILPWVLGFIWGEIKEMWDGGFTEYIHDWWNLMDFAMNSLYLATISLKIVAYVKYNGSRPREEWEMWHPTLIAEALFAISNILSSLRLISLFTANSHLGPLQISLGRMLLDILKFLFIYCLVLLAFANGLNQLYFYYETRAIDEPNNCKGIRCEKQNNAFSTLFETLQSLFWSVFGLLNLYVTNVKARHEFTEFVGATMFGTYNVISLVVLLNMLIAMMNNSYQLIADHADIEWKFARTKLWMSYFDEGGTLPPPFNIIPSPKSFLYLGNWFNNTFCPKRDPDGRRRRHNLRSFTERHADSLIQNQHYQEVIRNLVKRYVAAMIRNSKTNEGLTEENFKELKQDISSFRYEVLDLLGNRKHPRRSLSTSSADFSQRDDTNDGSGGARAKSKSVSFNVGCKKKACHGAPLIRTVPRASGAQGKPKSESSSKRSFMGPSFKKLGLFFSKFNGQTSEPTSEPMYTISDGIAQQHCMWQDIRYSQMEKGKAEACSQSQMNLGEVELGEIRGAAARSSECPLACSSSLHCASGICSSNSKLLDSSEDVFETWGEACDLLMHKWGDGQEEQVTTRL
Experiment: FLIPR Ca2+ influx assay (Fluo-4) with 365/447 nm photoswitching, HEK293 stably expressing mouse TRPC5
Format: cell-based
Conditions: for Activity on TRPC5 in FLIPR screening: 365/447 nm cycles; for EC50: Z* = mostly-Z PSS under 365 nm LED, Fluo-4-loaded cells, read-out: Agonistic EC50 (365 nm) TRPC5
Text: We initially screened for the photoswitchability of activity in cells using a fluorometric imaging plate reader (FLIPR) calcium flux assay, with HEK293 cells stably expressing mouse TRPC4β or mouse TRPC5. Note, however, that the parallel-throughput FLIPR setup is limited to use fixed light-emitting diodes at 365 nm (good Z) and 447 nm (suboptimal E), which, combined with the slowness of the onset and recovery of the fluorescence readout for calcium, causes the FLIPR results to underestimate the reagents’ true speed, degree and completion of TRPC chromocontrol (shown later). […]
3 Cultured Cell Lines (primarily for Fig. 1 and Fig. 2)
3.1 FLIPR Ca2+ influx assay in cell suspensions.
We initially screened for photoswitchability of activity in cells, using a fluorometric imaging plate reader (FLIPR) calcium flux assay, with human embryonic kidney cell line HEK293 stably transfected to express mouse TRPC4β- or TRPC5-CFP fusion protein (HEKmTRPC4β-CFP / HEKmTRPC5-CFP, HEK293 obtained from ATCC CRL 1573). The FLIPR setup provides high-content data, but it is limited to using LED wavelengths of 365 nm (best-Z) and 447 nm (suboptimal-E), while imaging at 470 nm excitation (Fluo-4 AM as Ca2+ indicator; this imaging light counteracts both PSSs). Therefore, we expected the FLIPR results to under-estimate the true chromocontrol power accessible to the reagents.
Cells were grown to 70%-90% confluency in a 75-cm2 culture flask, trypsinised, washed and resuspended in BSA-containing (0.1%) HBS, and supplemented with 3 µM Fluo-4/AM. Stably TRPC-transfected cells were induced with tetracycline 24 h prior to the experiments.42,43 After incubation at 37°C for 30 min [Fluo-4 loading], cells were again washed, resuspended, and dispensed (40 µl/well) into black pigmented, clear-bottom 384-well plates (Greiner µ-clear). To image the Fluo-4 fluorescence during the application and photoswitching of test compounds, these plates were first mounted to a Tecan Fluent 480 (Tecan, Männedorf, Switzerland) liquid handling device, equipped with a 384-tip multichannel arm and a gripper arm. A custom-made plate-imaging device was used for photoswitching during fluorescence imaging, which features LED-based excitation modules (365 nm and 447 nm used here for photoswitching, and 470 nm used here for Fluo-4 readout) projected onto the bottom of the microwell plate, with a cooled scientific complementary metal oxide sensor (sCMOS) camera (Zyla 5.5, Andor, Belfast, UK) equipped with a Nokton 42.5 mm f/0.95 (Voigtlaender, Fürth, Germany) for detection. The LEDs were controlled with an Arduino device and constant current drivers (1 A for 365 and 470 nm LEDs; 3 A for 447 nm LED); detection was under the control of Micromanager 2.0 software. Compounds were serially diluted and applied to the Fluo-4-loaded cell suspensions inside this custom plate-imaging device, then fluorescence intensities (under 470 nm excitation) were continuously recorded during programmed illuminations e.g. with alternating 365 nm and 447 nm phases.
Concentration-response curves for the Z-isomers (channel activation) were then constructed from the maximal signals during 365 nm phases, after a suitable number of "priming" cycles to allow the system to reach stable performance (Supplementary Fig. 13).
All experiments were conducted as a minimum of 3 independent experiments with each experiment averaging data in technical duplicates. […]
Cellular TRPC5 photoswitching: HEK cell Ca2+ influx photomodulation […]
Supplementary Figure 12. […] All […]
four compounds' profiles are consistent with their being ideal efficacy photoswitches (representative traces from one experiment out of ≥3 independent experiments each run in technical duplicates). […]
log c [nM] log c [nM] log c [nM] log c [nM]
Supplementary Figure 13. Dose-response for Z*-AzPico, Z*-AzPico2, Z*-AzHC, and Z*-AzHC2 on TRPC5 and […]

SMILES: Cn1c(=O)n(CCCO)c(=O)c2c1nc(Oc1ccc(N=Nc3ccccc3)c(OC(F)(F)F)c1)n2Cc1ccc(Cl)cc1 [AzPico]
- Activity on TRPC5 in FLIPR screening: photoswitchable activity
- EC50: 4 nM

SMILES: Cn1c(=O)n(CCCO)c(=O)c2c1nc(Oc1ccc(N=Nc3ccccc3)c(Cl)c1)n2Cc1ccc(Cl)cc1 [AzHC]
- Activity on TRPC5 in FLIPR screening: photoswitchable activity
- EC50: 6.4 nM

SMILES: Cn1c(=O)n(CCCO)c(=O)c2c1nc(Oc1ccc(/N=N\c3ccccc3)c(Cl)c1)n2Cc1ccc(Cl)cc1 [Z*-AzHC]
- EC50: 6.4 nM

SMILES: Cn1c(=O)n(CCCO)c(=O)c2c1nc(Oc1ccc(/N=N/c3ccccc3)c(OC(F)(F)F)c1)n2Cc1ccc(Cl)cc1 [E-AzPico]
- Effect of E isomer alone on TRPC5 (12 pM to […], before 365-nm illumination): no effect
